Laboratory results published in PMC7251123, “CX-5461 activates the DNA damage response and demonstrates therapeutic efficacy in high-grade serous ovarian cancer” (Nature Communications, 2020).
pIC50: −log10 of the molar value. Values joined by “and” are separate entries in the source; they are usually repeats but may differ in a detail not shown here. Identical values can stand only once. Like-named read-outs stand apart in the source and are kept apart here.

System: Pol I transcription
Assay: Inhibition of Pol I transcription: 47S precursor rRNA levels by quantitative RT-PCR after 1 h treatment
Format: cell-based, human
Conditions: for 47S precursor rRNA level, fold change relative to vehicle-treated controls: individual replicates; for pIC50: Homo sapiens
Method: Fig. 1 Sensitivity of ovarian cancer (OVCA) cell lines to CX-5461. a CX-5461 doses that induce 50% growth inhibition (GI50) at 48 hours. Error bars represent mean ± standard deviation (SD). Asterisks denote mutated TP53 status. […] Information regarding each cell lines source, mean G1_50 values, SD and N values are outlined in Supplementary Table 1. […] Statistical analysis was performed using a two-sided Mann–Whitney test. Error bars represent mean ± SD. c Baseline rDNA transcription rates of OVCA cell lines (listed in (d)), as determined by quantitative real-time PCR (qRT-PCR) analysis using primers specific to the external transcribed spacer 5’ETS (+413–521 bp) relative to the transcription start site (TSS). Expression levels in each cell line were normalised to Vimentin mRNA and expressed as fold change relative to TOV112D cells. Each dot represents the mean value of n = 3 biologically independent experiments per cell line (Individual data points are provided in Supplementary Data 4). Error bars represent mean ± SD. Statistical analysis was performed using a two-tailed unpaired t test. d Dose-response curves of 47S precursor rRNA levels measured by quantitative RT-PCR. OVCA cell lines were treated with vehicle or increasing drug concentrations of CX-5461 (0.001, 0.01, 0.03, 0.1, 0.3, 1 and 3 μM) for 1 h before RNA was harvested. Expression levels were normalised to Vimentin mRNA and expressed as fold change relative to vehicle-treated controls. Shown are the mean of n = 3 independent biological experiments for each cell line. (Individual data points are provided in Supplementary Data 4). e The mean inhibitory concentration values that led to 50% transcription inhibition (IC50) (of n = 3 biologically independent experiments for each cell line) from D are presented (Individual data points are provided in Supplementary Data 4). Error bars represent mean ± SD. Statistical analysis was performed using a two-sided Mann–Whitney test.
For Reverse-transcription qPCR analysis, cells were lysed, RNA extracted, and first-strand cDNA synthesized using random hexamer primers (Promega, C1181) and Superscript III (Invitrogen,18080044). Quantitative PCR (qPCR) was performed in duplicate using the FAST SYBR Green dye (Applied Biosystems, 4385610) on the StepOnePlus real-time PCR system (Applied Biosystems). Primer sequences are listed in (Supplementary Table 3).
Dose-response curves of 4 7S precursor rRNA levels (Figure 1D) measured by quantitative RT-PCR after 1h treatment. Expression levels
were normalised to Vimentin mRNA and expressed as fold change relative to vehicle-treated controls.
IC50 doses (Figure 1E) were determined from dose response curves in Figure 1D
using GraphPad Prism version 8.

pIC50 (1 h, 2008, 1 h, mean n=3, read-out: IC50 Pol I transcription): 7.31
pIC50 (1 h, ES2, 1 h, mean n=3, read-out: IC50 Pol I transcription): 7.26
pIC50 (1 h, JHOC9, 1 h, mean n=3, read-out: IC50 Pol I transcription): 6.57
pIC50 (1 h, JHOM1, 1 h, mean n=3, read-out: IC50 Pol I transcription): 6.70
pIC50 (1 h, KURAMOCHI, 1 h, mean n=3, read-out: IC50 Pol I transcription): 7.32
pIC50 (1 h, RMG2, 1 h, mean n=3, read-out: IC50 Pol I transcription): 6.95
pIC50 (1 h, sensitive and resistant OVCA cell lines, 1 h treatment, read-out: IC50 (concentration inhibiting Pol I transcription by 50%), range over cell lines): 6.55 to 7.42
pIC50 (A2780, 1 h, mean n=3, read-out: IC50 Pol I transcription): 7.20
pIC50 (COLO 704, 1 h, COLO704, 1 h, mean n=3, read-out: IC50 Pol I transcription): 7.01
pIC50 (EFO-21, 1 h, EFO21, 1 h, mean n=3, read-out: IC50 Pol I transcription): 7.18
pIC50 (IGROV-1, 1 h, IGROV1, 1 h, mean n=3, read-out: IC50 Pol I transcription): 7.42
pIC50 (OV-90, 1 h, OV90, 1 h, mean n=3, read-out: IC50 Pol I transcription): 6.93
pIC50 (OVCAR-3, 1 h, OVCAR3, 1 h, mean n=3, read-out: IC50 Pol I transcription): 7.17
pIC50 (OVCAR-4, 1 h, OVCAR4, 1 h, mean n=3, read-out: IC50 Pol I transcription): 7.05
pIC50 (OVCAR-8, 1 h, OVCAR8, 1 h, mean n=3, read-out: IC50 Pol I transcription): 7.01
pIC50 (TOV112D, 1 h, TOV112D, 1 h, mean n=3, read-out: IC50 Pol I transcription): 6.87
Structure (SMILES): Cc1cnc(CNC(=O)c2c(=O)c3ccc(N4CCCN(C)CC4)nc3n3c2sc2ccccc23)cn1 [CX-5461]
47S precursor rRNA level, fold change relative to vehicle-treated controls (A2780, CX-5461 0.00000001 M, 1 h): 1.227 and 1.156 and 0.5552
47S precursor rRNA level, fold change relative to vehicle-treated controls (A2780, CX-5461 0.00000003 M, 1 h): 1.079 and 0.6056 and 0.5354
47S precursor rRNA level, fold change relative to vehicle-treated controls (A2780, CX-5461 0.0000001 M, 1 h): 0.7784 and 0.3051 and 0.7248
47S precursor rRNA level, fold change relative to vehicle-treated controls (A2780, CX-5461 0.0000003 M, 1 h): 0.4946 and 0.2868 and 0.2848
47S precursor rRNA level, fold change relative to vehicle-treated controls (A2780, CX-5461 0.000001 M, 1 h): 0.1884 and 0.1928 and 0.2616
47S precursor rRNA level, fold change relative to vehicle-treated controls (A2780, CX-5461 0.000003 M, 1 h): 0.1746 and 0.05092 and 0.1316
47S precursor rRNA level, fold change relative to vehicle-treated controls (A2780, CX-5461 1E-09 M, 1 h): 1.211 and 0.7921 and 0.6449
47S precursor rRNA level, fold change relative to vehicle-treated controls (EFO21, CX-5461 0.00000001 M, 1 h): 1.115 and 1.095 and 1.792
47S precursor rRNA level, fold change relative to vehicle-treated controls (EFO21, CX-5461 0.00000003 M, 1 h): 1.11 and 1.692 and 0.987
47S precursor rRNA level, fold change relative to vehicle-treated controls (EFO21, CX-5461 0.0000001 M, 1 h): 0.7444 and 0.9773 and 0.668
47S precursor rRNA level, fold change relative to vehicle-treated controls (EFO21, CX-5461 0.0000003 M, 1 h): 0.2419 and 0.3103 and 0.414
47S precursor rRNA level, fold change relative to vehicle-treated controls (EFO21, CX-5461 0.000001 M, 1 h): 0.2002 and 0.2399 and 0.3839
47S precursor rRNA level, fold change relative to vehicle-treated controls (EFO21, CX-5461 0.000003 M, 1 h): 0.1871 and 0.2673 and 0.0006867
47S precursor rRNA level, fold change relative to vehicle-treated controls (EFO21, CX-5461 1E-09 M, 1 h): 1.492 and 1.313 and 0.8129
47S precursor rRNA level, fold change relative to vehicle-treated controls (JHOC9, CX-5461 0.00000001 M, 1 h): 0.9254 and 0.9049 and 1.002
47S precursor rRNA level, fold change relative to vehicle-treated controls (JHOC9, CX-5461 0.00000003 M, 1 h): 1.057 and 1.034 and 0.8359
47S precursor rRNA level, fold change relative to vehicle-treated controls (JHOC9, CX-5461 0.0000001 M, 1 h): 0.8119 and 0.7939 and 0.6945
47S precursor rRNA level, fold change relative to vehicle-treated controls (JHOC9, CX-5461 0.0000003 M, 1 h): 0.5763 and 0.5636 and 0.384
47S precursor rRNA level, fold change relative to vehicle-treated controls (JHOC9, CX-5461 0.000001 M, 1 h): 0.3587 and 0.3508 and 0.2158
47S precursor rRNA level, fold change relative to vehicle-treated controls (JHOC9, CX-5461 0.000003 M, 1 h): 0.08402 and 0.08216 and 0.06114
47S precursor rRNA level, fold change relative to vehicle-treated controls (JHOC9, CX-5461 1E-09 M, 1 h): 1.047 and 1.024 and 0.8051
47S precursor rRNA level, fold change relative to vehicle-treated controls (OV90, CX-5461 1E-09 M, 1 h): 1.356
47S precursor rRNA level, fold change relative to vehicle-treated controls (RMG2, CX-5461 0.00000001 M, 1 h): 1.019 and 0.9292 and 0.7914
47S precursor rRNA level, fold change relative to vehicle-treated controls (RMG2, CX-5461 0.00000003 M, 1 h): 0.8882 and 0.4552 and 0.4564
47S precursor rRNA level, fold change relative to vehicle-treated controls (RMG2, CX-5461 0.0000001 M, 1 h): 0.8694 and 0.414 and 0.3672
47S precursor rRNA level, fold change relative to vehicle-treated controls (RMG2, CX-5461 0.0000003 M, 1 h): 0.5159 and 0.1241 and 0.09886
47S precursor rRNA level, fold change relative to vehicle-treated controls (RMG2, CX-5461 0.000001 M, 1 h): 0.2164 and 0.1124 and 0.1026
47S precursor rRNA level, fold change relative to vehicle-treated controls (RMG2, CX-5461 0.000003 M, 1 h): 0.06697 and 0.02897 and 0.03341
47S precursor rRNA level, fold change relative to vehicle-treated controls (RMG2, CX-5461 1E-09 M, 1 h): 0.7818 and 0.717 and 0.6208
47S precursor rRNA level, fold change relative to vehicle-treated controls (TOV112D, CX-5461 0.00000001 M, 1 h): 1.178 and 0.9492
47S precursor rRNA level, fold change relative to vehicle-treated controls (TOV112D, CX-5461 0.00000003 M, 1 h): 0.9271
47S precursor rRNA level, fold change relative to vehicle-treated controls (TOV112D, CX-5461 0.0000001 M, 1 h): 1.01
47S precursor rRNA level, fold change relative to vehicle-treated controls (TOV112D, CX-5461 0.0000003 M, 1 h): 0.388 and 0.509
47S precursor rRNA level, fold change relative to vehicle-treated controls (TOV112D, CX-5461 0.000001 M, 1 h): 0.1661 and 0.2245 and 0.333
47S precursor rRNA level, fold change relative to vehicle-treated controls (TOV112D, CX-5461 0.000003 M, 1 h): 0.1644 and 0.0787 and 0.1952
47S precursor rRNA level, fold change relative to vehicle-treated controls (TOV112D, CX-5461 1E-09 M, 1 h): 1.079 and 1.012 and 1.217
